Data as given in patent US10988523B2, “Modified lipidated Relaxin B chain peptides and their therapeutic use” (Sanofi, priority 2018, dated 2021).
*1 amine or outer side, *2 acyl side, *3 side chain or, on linkers, in order; H or OH if unused. Where a SMILES comes first, the peptide text is derived from it. Side-chain parts run from the residue outwards. [ ]: non-standard residue; d: D form. The star is where a group is joined. γGlu = O=C(O)[C@H](CCC(=O)[*:2])N[*:1]; Stearoyl = CCCCCCCCCCCCCCCCCC(=O)*; Palmitoyl = CCCCCCCCCCCCCCCC(=O)*; Myristoyl = CCCCCCCCCCCCCC(=O)*; αMeK = C[C@](N)(CCCCN)C(=O)O; Nle = CCCC[C@H](N)C(=O)O; AEEA = NCCOCCOCC(=O)O; Aib = CC(C)(N)C(=O)O

Assays:
RXFP1 = target: T1, RXFP1 (Homo sapiens, UniProt Q9HBX9); assay: OVCAR5 cAMP assay (HTRF), RXFP1 agonist activity; format: cell-based; conditions: for EC50: OVCAR5 cells, cAMP HTRF, read-out: EC50 (nM), OVCAR 5 cells (cAMP); for Emax: OVCAR-5, maximal cAMP relative to H2-relaxin maximum (100%), read-out: EMax, OVCAR 5 cells (cAMP)
T1 construct: OVCAR5 cells expressing endogenous RXFP1; endogenous in cells; host or cells: OVCAR5 cells
T1 sequence (Q9HBX9 1-757): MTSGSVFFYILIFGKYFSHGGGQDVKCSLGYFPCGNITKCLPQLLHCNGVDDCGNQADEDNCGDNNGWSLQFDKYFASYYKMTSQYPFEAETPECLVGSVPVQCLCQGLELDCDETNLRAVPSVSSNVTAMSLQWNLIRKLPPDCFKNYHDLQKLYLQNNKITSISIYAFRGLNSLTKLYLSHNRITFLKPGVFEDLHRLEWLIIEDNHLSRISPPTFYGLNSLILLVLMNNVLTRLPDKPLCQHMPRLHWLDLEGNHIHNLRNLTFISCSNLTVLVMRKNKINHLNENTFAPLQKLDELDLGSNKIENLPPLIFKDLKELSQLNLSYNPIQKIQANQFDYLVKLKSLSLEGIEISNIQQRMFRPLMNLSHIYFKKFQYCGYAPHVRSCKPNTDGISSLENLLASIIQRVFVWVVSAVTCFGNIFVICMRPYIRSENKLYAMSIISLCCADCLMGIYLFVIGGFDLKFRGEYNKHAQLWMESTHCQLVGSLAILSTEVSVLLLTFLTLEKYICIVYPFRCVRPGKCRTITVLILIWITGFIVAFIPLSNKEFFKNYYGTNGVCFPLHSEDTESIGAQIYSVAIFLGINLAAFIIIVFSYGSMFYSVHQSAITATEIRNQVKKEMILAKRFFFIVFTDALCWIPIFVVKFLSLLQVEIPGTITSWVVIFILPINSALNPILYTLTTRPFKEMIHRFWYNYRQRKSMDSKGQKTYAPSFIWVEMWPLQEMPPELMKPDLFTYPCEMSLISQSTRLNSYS
How it was run: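 OVCAR5 cells (endogenous RXFP1) pretreated 40 min at 37° C with 1 mM IBMX, then exposed to peptides in serum-free medium for 30 min at 37° C. Lysate cAMP read by HTRF; EC50 from variable-slope sigmoidal fit; Emax as % of H2-relaxin maximal cAMP in same run.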

[1] = Pharmacokinetic (PK) determination after i.v. or s.c. administration to rats; format: in vivo, Sprague Dawley rats; conditions: Sprague Dawley, Rat PK; for C0 / half-life: iv, 1 mg/kg i.v.; for C0: extrapolated plasma concentration at t=0, read-out: C0; for half-life / Cmax / Tmax / bioavailability: plasma; for half-life: read-out: T½ (converted); for Cmax / Tmax: sc, 3 mg/kg s.c.; for bioavailability: subcutaneous, 3 mg/kg s.c. vs 1 mg/kg i.v., dose-corrected AUC ratio
Experimental: Prior to the testing of a peptide batch, its purity (HPLC-UV) was determined. Dose was corrected for presence of salts, solvent and purity.
Sprague Dawley rats were dosed with study peptide at a dose of 1 mg/kg intravenously (i.v.) or 3 mg/kg subcutaneously (s.c.) as a solution in PBS (0.2 mg/ml and 0.6 mg/ml respectively).
Plasma samples were analyzed after protein precipitation via liquid chromatography mass spectrometry (LC/MS).
PK parameters and half-life were calculated using Phoenix 64 (WinNonlin 6.4)-Pharsight (Certara™) (non-compartment model). Values below the limit of quantification (BLQ) were replaced by zero for subsequent calculations and PK analysis.
T½: in-vivo half life, time required for test compound plasma concentration to be divided by two during the PK experiment.
C0: Extrapolated test compound plasma concentration at t=0 time point (i.v. route).
Cmax: maximal test compound plasma concentration at the indicated time point (s.c. route).
Tmax: Time point where Cmax is attained.
F %: s.c. vs i.v. bioavailability, dose-corrected area under curve (AUC) s.c. route divided by AUC i.v.

| EC50 (RXFP1) | Emax (RXFP1) | C0 [1] | half-life [1] | Cmax [1] | Tmax [1] | bioavailability [1] | SMILES |
| --- | --- | --- | --- | --- | --- | --- | --- |
| 0.02 nM | 87% | 2650 nM | 3.38 h | 1880 nM | 8 h | 53% | CCCCCCCCCCCCCCCCCC(=O)N[C@@H](CCC(=O)N[C@@H](CCC(=O)N[C@@H](CCC(=O)N[C@@H](CCC(=O)NCCCC[C@H](NC(=O)COCCOCCNC(=O)COCCOCCNC(=O)COCCOCCNC(=O)[C@H](CCCCNC(C)=O)NC(=O)[C@H](CCCCN)NC(=O)[C@H](CCCNC(=N)N)NC(=O)[C@](C)(CCCCN)NC(=O)[C@H](CO)NC(=O)[C@H](Cc1c[nH]c2ccccc12)NC(=O)[C@@H](NC(=O)[C@H](CO)NC(=O)[C@H](CCCC)NC(=O)CNC(=O)[C@H](CCC(=O)O)NC(=O)C(C)(C)NC(=O)C(C)(C)NC(=O)[C@@H](NC(=O)[C@H](CCCCNC(C)=O)NC(=O)[C@H](C)NC(=O)[C@H](CCCNC(=N)N)NC(=O)[C@@H](NC(=O)[C@H](CCCCN)NC(=O)[C@H](CCC(=O)O)NC(=O)[C@H](CCCNC(=N)N)NC(=O)CNC(=O)[C@H](CCC(=O)O)NC(=O)[C@H](CC(C)C)NC(C)=O)C(C)C)[C@@H](C)CC)[C@@H](C)O)C(N)=O)C(=O)O)C(=O)O)C(=O)O)C(=O)O [compound 16] (Ac-LEGREKVRAK(Ac)I[Aib][Aib]EG[Nle]STWS[αMeK]RKK(Ac)[AEEA][AEEA][AEEA]K([γGlu-γGlu-γGlu-γGlu-Stearoyl])-NH2) |
| 0.17 nM | 95% | 3500 nM | 5.8 h | 2400 nM | 8 h | 73% | CCCCCCCCCCCCCCCC(=O)N[C@@H](CCC(=O)N[C@@H](CCC(=O)N[C@@H](CCC(=O)N[C@@H](CCC(=O)NCCCC[C@H](NC(=O)COCCOCCNC(=O)COCCOCCNC(=O)COCCOCCNC(=O)[C@H](CCCCNC(C)=O)NC(=O)[C@H](CCCCN)NC(=O)[C@H](CCCNC(=N)N)NC(=O)[C@](C)(CCCCN)NC(=O)[C@H](CO)NC(=O)[C@H](Cc1c[nH]c2ccccc12)NC(=O)[C@@H](NC(=O)[C@H](CO)NC(=O)[C@H](CCCC)NC(=O)CNC(=O)[C@H](CCC(=O)O)NC(=O)C(C)(C)NC(=O)C(C)(C)NC(=O)[C@@H](NC(=O)[C@H](CCCCNC(C)=O)NC(=O)[C@H](C)NC(=O)[C@H](CCCNC(=N)N)NC(=O)[C@@H](NC(=O)[C@H](CCCCN)NC(=O)[C@H](CCC(=O)O)NC(=O)[C@H](CCCNC(=N)N)NC(=O)CNC(=O)[C@H](CCC(=O)O)NC(=O)[C@H](CC(C)C)NC(C)=O)C(C)C)[C@@H](C)CC)[C@@H](C)O)C(N)=O)C(=O)O)C(=O)O)C(=O)O)C(=O)O [compound 17] (Ac-LEGREKVRAK(Ac)I[Aib][Aib]EG[Nle]STWS[αMeK]RKK(Ac)[AEEA][AEEA][AEEA]K([γGlu-γGlu-γGlu-γGlu-Palmitoyl])-NH2) |
| – | 93% | – | – | – | – | – | CCCCCCCCCCCCCC(=O)N[C@@H](CCC(=O)N[C@@H](CCC(=O)N[C@@H](CCC(=O)N[C@@H](CCC(=O)NCCCC[C@H](NC(=O)COCCOCCNC(=O)COCCOCCNC(=O)COCCOCCNC(=O)COCCOCCNC(=O)[C@H](CCCCNC(C)=O)NC(=O)[C@H](C)NC(=O)[C@H](CCCNC(=N)N)NC(=O)[C@](C)(CCCCN)NC(=O)[C@H](CO)NC(=O)[C@H](Cc1ccccc1)NC(=O)[C@@H](NC(=O)[C@H](CO)NC(=O)[C@H](CCC(N)=O)NC(=O)CNC(=O)[C@H](CCC(=O)O)NC(=O)C(C)(C)NC(=O)C(C)(C)NC(=O)[C@@H](NC(=O)[C@H](CCCCNC(C)=O)NC(=O)[C@H](C)NC(=O)[C@H](CCCNC(=N)N)NC(=O)[C@@H](NC(=O)[C@H](CCCCN)NC(=O)[C@H](CCC(=O)O)NC(=O)[C@H](CCCNC(=N)N)NC(=O)CNC(=O)[C@H](CCC(=O)O)NC(=O)[C@H](CC(C)C)NC(C)=O)C(C)C)[C@@H](C)CC)[C@@H](C)O)C(N)=O)C(=O)O)C(=O)O)C(=O)O)C(=O)O [compound 190] (Ac-LEGREKVRAK(Ac)I[Aib][Aib]EGQSTFS[αMeK]RAK(Ac)[AEEA][AEEA][AEEA][AEEA]K([γGlu-γGlu-γGlu-γGlu-Myristoyl])-NH2) |
